Measurements published in PubChem BioAssay (NCI).
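These data come from cells grown in 96-well plates and exposed to compound for 48 hours at five concentrations. GI50: concentration for 50% inhibition of growth. TGI is the concentration that stops growth completely.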

Key:
Experiment in all cases: NCI tumour cell line growth inhibition, 48 h
786-0 renal = system: 786-0 renal
A498 renal = system: A498 renal
A549 NSCLC = system: A549 NSCLC
ACHN renal = system: ACHN renal
BT-549 breast = system: BT-549 breast
CCRF-CEM leukemia = system: CCRF-CEM leukemia
COLO 205 colon = system: COLO 205 colon
DU-145 prostate = system: DU-145 prostate
EKVX NSCLC = system: EKVX NSCLC
HCC-2998 colon = system: HCC-2998 colon
HCT-116 colon = system: HCT-116 colon
HCT-15 colon = system: HCT-15 colon
HL-60(TB) leukemia = system: HL-60(TB) leukemia
HOP-62 NSCLC = system: HOP-62 NSCLC
HOP-92 NSCLC = system: HOP-92 NSCLC
HS 578T breast = system: HS 578T breast
HT29 colon = system: HT29 colon
IGROV1 ovarian = system: IGROV1 ovarian
KM12 colon = system: KM12 colon
LOX IMVI melanoma = system: LOX IMVI melanoma
M14 melanoma = system: M14 melanoma
MALME-3M melanoma = system: MALME-3M melanoma
MCF7 breast = system: MCF7 breast
MDA-MB-231 breast = system: MDA-MB-231 breast
MDA-MB-435 = system: MDA-MB-435
MOLT-4 leukemia = system: MOLT-4 leukemia
NCI-H226 lung = system: NCI-H226 lung
NCI-H23 lung = system: NCI-H23 lung
NCI-H460 lung = system: NCI-H460 lung
NCI-H522 lung = system: NCI-H522 lung
NCI/ADR-RES ovarian = system: NCI/ADR-RES ovarian
OVCAR-3 ovarian = system: OVCAR-3 ovarian
OVCAR-4 ovarian = system: OVCAR-4 ovarian
OVCAR-5 ovarian = system: OVCAR-5 ovarian
OVCAR-8 ovarian = system: OVCAR-8 ovarian
PC-3 prostate = system: PC-3 prostate
RPMI-8226 leukemia = system: RPMI-8226 leukemia
RXF 393 renal = system: RXF 393 renal
SF-268 CNS = system: SF-268 CNS
SF-295 CNS = system: SF-295 CNS
SF-539 CNS = system: SF-539 CNS
SK-MEL-2 melanoma = system: SK-MEL-2 melanoma
SK-MEL-28 melanoma = system: SK-MEL-28 melanoma
SK-MEL-5 melanoma = system: SK-MEL-5 melanoma
SK-OV-3 ovarian = system: SK-OV-3 ovarian
SN12C renal = system: SN12C renal
SNB-19 CNS = system: SNB-19 CNS
SNB-75 CNS = system: SNB-75 CNS
SR leukemia = system: SR leukemia
SW-620 colon = system: SW-620 colon
T-47D breast = system: T-47D breast
TK-10 renal = system: TK-10 renal
U251 CNS = system: U251 CNS
UACC-257 melanoma = system: UACC-257 melanoma
UACC-62 melanoma = system: UACC-62 melanoma
UO-31 renal = system: UO-31 renal

Compound: COc1ccc(C(=O)/C=C/c2ccc(OCc3ccc(Cl)cc3)cc2)cc1OC
- GI50 (786-0 renal): 71.2 µM
- TGI (786-0 renal): 470 µM
- GI50 (A498 renal): 141 µM
- TGI (A498 renal): 604 µM
- GI50 (A549 NSCLC): 77.1 µM
- TGI (A549 NSCLC): > 1 mM
- GI50 (ACHN renal): 57.9 µM
- TGI (ACHN renal): > 1 mM
- GI50 (BT-549 breast): 81.8 µM
- TGI (BT-549 breast): 586 µM
- GI50 (CCRF-CEM leukemia): 190 µM
- TGI (CCRF-CEM leukemia): > 1 mM
- GI50 (COLO 205 colon): 253 µM
- TGI (COLO 205 colon): > 1 mM
- GI50 (DU-145 prostate): 202 µM
- TGI (DU-145 prostate): > 1 mM
- GI50 (EKVX NSCLC): 66.4 µM
- TGI (EKVX NSCLC): > 1 mM
- GI50 (HCC-2998 colon): 960 µM
- TGI (HCC-2998 colon): > 1 mM
- GI50 (HCT-116 colon): 40.8 µM
- TGI (HCT-116 colon): > 1 mM
- GI50 (HCT-15 colon): 112 µM
- TGI (HCT-15 colon): > 1 mM
- GI50 (HL-60(TB) leukemia): 65 µM
- TGI (HL-60(TB) leukemia): 296 µM
- GI50 (HOP-62 NSCLC): 110 µM
- TGI (HOP-62 NSCLC): 419 µM
- GI50 (HOP-92 NSCLC): 44.5 µM
- TGI (HOP-92 NSCLC): 365 µM
- GI50 (HS 578T breast): 108 µM
- TGI (HS 578T breast): > 1 mM
- GI50 (HT29 colon): 163 µM
- TGI (HT29 colon): > 1 mM
- GI50 (IGROV1 ovarian): 118 µM
- TGI (IGROV1 ovarian): > 1 mM
- GI50 (KM12 colon): 171 µM
- TGI (KM12 colon): > 1 mM
- GI50 (LOX IMVI melanoma): 91.3 µM
- TGI (LOX IMVI melanoma): > 1 mM
- GI50 (M14 melanoma): 150 µM
- TGI (M14 melanoma): > 1 mM
- GI50 (MALME-3M melanoma): 176 µM
- TGI (MALME-3M melanoma): 639 µM
- GI50 (MCF7 breast): 47.4 µM
- TGI (MCF7 breast): > 1 mM
- GI50 (MDA-MB-231 breast): 94.6 µM
- TGI (MDA-MB-231 breast): > 1 mM
- GI50 (MDA-MB-435): 150 µM
- TGI (MDA-MB-435): > 1 mM
- GI50 (MOLT-4 leukemia): 276 µM
- TGI (MOLT-4 leukemia): > 1 mM
- GI50 (NCI-H226 lung): 63.1 µM
- TGI (NCI-H226 lung): 635 µM
- GI50 (NCI-H23 lung): 172 µM
- TGI (NCI-H23 lung): > 1 mM
- GI50 (NCI-H460 lung): 68.6 µM
- TGI (NCI-H460 lung): > 1 mM
- GI50 (NCI-H522 lung): 88.4 µM
- TGI (NCI-H522 lung): 351 µM
- GI50 (NCI/ADR-RES ovarian): 109 µM
- TGI (NCI/ADR-RES ovarian): > 1 mM
- GI50 (OVCAR-3 ovarian): 55.6 µM
- TGI (OVCAR-3 ovarian): 230 µM
- GI50 (OVCAR-4 ovarian): 44.2 µM
- TGI (OVCAR-4 ovarian): 372 µM
- GI50 (OVCAR-5 ovarian): 499 µM
- TGI (OVCAR-5 ovarian): > 1 mM
- GI50 (OVCAR-8 ovarian): 54.8 µM
- TGI (OVCAR-8 ovarian): 633 µM
- GI50 (PC-3 prostate): 57.6 µM
- TGI (PC-3 prostate): 435 µM
- GI50 (RPMI-8226 leukemia): 98.4 µM
- TGI (RPMI-8226 leukemia): 773 µM
- GI50 (RXF 393 renal): 90.6 µM
- TGI (RXF 393 renal): 502 µM
- GI50 (SF-268 CNS): 159 µM
- TGI (SF-268 CNS): > 1 mM
- GI50 (SF-295 CNS): 189 µM
- TGI (SF-295 CNS): > 1 mM
- GI50 (SF-539 CNS): 159 µM
- TGI (SF-539 CNS): > 1 mM
- GI50 (SK-MEL-2 melanoma): 252 µM
- TGI (SK-MEL-2 melanoma): > 1 mM
- GI50 (SK-MEL-28 melanoma): 366 µM
- TGI (SK-MEL-28 melanoma): > 1 mM
- GI50 (SK-MEL-5 melanoma): 64.3 µM
- TGI (SK-MEL-5 melanoma): 264 µM
- GI50 (SK-OV-3 ovarian): 142 µM
- TGI (SK-OV-3 ovarian): 607 µM
- GI50 (SN12C renal): 221 µM
- TGI (SN12C renal): > 1 mM
- GI50 (SNB-19 CNS): 42.7 µM
- TGI (SNB-19 CNS): 206 µM
- GI50 (SNB-75 CNS): 111 µM
- TGI (SNB-75 CNS): 484 µM
- GI50 (SR leukemia): 148 µM
- TGI (SR leukemia): > 1 mM
- GI50 (SW-620 colon): 196 µM
- TGI (SW-620 colon): > 1 mM
- GI50 (T-47D breast): 71.9 µM
- TGI (T-47D breast): > 1 mM
- GI50 (TK-10 renal): 396 µM
- TGI (TK-10 renal): > 1 mM
- GI50 (U251 CNS): 58.8 µM
- TGI (U251 CNS): 314 µM
- GI50 (UACC-257 melanoma): 244 µM
- TGI (UACC-257 melanoma): > 1 mM
- GI50 (UACC-62 melanoma): 76.8 µM
- TGI (UACC-62 melanoma): 376 µM
- GI50 (UO-31 renal): 190 µM
- TGI (UO-31 renal): > 1 mM
